Tests used:
Type in all cases: in vivo
Conditions in all cases: post-emergence spray at 4-5 leaf stage, 250 g/ha active ingredient with 450 kg/ha water, rated after 3 weeks in greenhouse
[1] = tested on: Indian mallow; experiment: weed control effect in post-emergence stage (Table 1); design: key: Level 10: completely dead; Level 9: above 95% growth control rate; Level 8: above 90% growth control rate; Level 7: above 80% growth control rate; Level 6: above 70% growth control rate; Level 5: above 60% growth control rate; Level 4: above 50% growth control rate; Level 3: above 20% growth control rate; Level 2: 5%-20% growth control rate; Level 1: below 5% growth control rate
Experimental: (§1) The activity level standard of harmful plant destruction (i.e. growth control rate) is as follows: The above described growth control rate is fresh weight control rate. Monocotyledonous and dicotyledonous weed seeds and main crop seeds (i.e. wheat, corn, rice, soybean, cotton, oilseed, millet and sorghum.) were put into a plastic pot loaded with soil. Then covered with 0.5-2 cm soil, the seeds were allowed to grow in good greenhouse environment. The test plants were treated at 4-5 leaf stage 2-3 weeks after sowing. The test compounds of the invention were dissolved with acetone respectively, then added with 80 tween and diluted by certain amount of water to certain concentration. The solution was sprayed to the plants with a sprayer. Then the plants were cultured for 3 weeks in the greenhouse.

[2] = tested on: bidens bipinnata; experiment: as above; design: key: Level 10: completely dead; Level 9: above 95% growth control rate; Level 8: above 90% growth control rate; Level 7: above 80% growth control rate; Level 6: above 70% growth control rate; Level 5: above 60% growth control rate; Level 4: above 50% growth control rate; Level 3: above 20% growth control rate; Level 2: 5%-20% growth control rate; Level 1: below 5% growth control rate
Experimental: as §1

[3] = tested on: crab grass; experiment: as above; design: key: Level 10: completely dead; Level 9: above 95% growth control rate; Level 8: above 90% growth control rate; Level 7: above 80% growth control rate; Level 6: above 70% growth control rate; Level 5: above 60% growth control rate; Level 4: above 50% growth control rate; Level 3: above 20% growth control rate; Level 2: 5%-20% growth control rate; Level 1: below 5% growth control rate
Experimental: as §1

[4] = tested on: echinochloa; experiment: as above; design: key: Level 10: completely dead; Level 9: above 95% growth control rate; Level 8: above 90% growth control rate; Level 7: above 80% growth control rate; Level 6: above 70% growth control rate; Level 5: above 60% growth control rate; Level 4: above 50% growth control rate; Level 3: above 20% growth control rate; Level 2: 5%-20% growth control rate; Level 1: below 5% growth control rate
Experimental: as §1

[5] = tested on: foxtail; experiment: as above; design: key: Level 10: completely dead; Level 9: above 95% growth control rate; Level 8: above 90% growth control rate; Level 7: above 80% growth control rate; Level 6: above 70% growth control rate; Level 5: above 60% growth control rate; Level 4: above 50% growth control rate; Level 3: above 20% growth control rate; Level 2: 5%-20% growth control rate; Level 1: below 5% growth control rate
Experimental: as §1

[6] = tested on: corn; experiment: post-emergence stage experiment, crop (Table 1)
Experimental: as §1

[7] = tested on: wheat; experiment: post-emergence stage experiment, crop (Table 1)
Experimental: as §1

[8] = tested on: rice; experiment: post-emergence stage experiment, crop (Table 1)
Experimental: as §1

[9] = tested on: rorippa indica; experiment: weed control effect in post-emergence stage (Table 1); design: key: Level 10: completely dead; Level 9: above 95% growth control rate; Level 8: above 90% growth control rate; Level 7: above 80% growth control rate; Level 6: above 70% growth control rate; Level 5: above 60% growth control rate; Level 4: above 50% growth control rate; Level 3: above 20% growth control rate; Level 2: 5%-20% growth control rate; Level 1: below 5% growth control rate
Experimental: as §1

| SMILES | weed control effect, Indian mallow (level) [1] | weed control effect, Bidens bipinnata (level) [2] | weed control effect, Crab grass (level) [3] | weed control effect, Echinochloa (level) [4] | weed control effect, Green foxtail (level) [5] | effect on crop, Corn (level) [6] | effect on crop, Wheat (level) [7] | effect on crop, Rice (level) [8] | weed control effect, Rorippa indica (level) [9] |
| --- | --- | --- | --- | --- | --- | --- | --- | --- | --- |
| Cn1cc(C(=O)Oc2c(C(=O)c3ccc(C(F)(F)F)c(-n4cccn4)c3Cl)c(C3CC3)nn2C)cn1 [Compound 076] | 10 | 4 (Level 4: above 50% growth control rate) | 5 (Level 5: above 60% growth control rate) | 7 (Level 7: above 80% growth control rate) | 10 | 4 (Level 4: above 50% growth control rate) | 2 (Level 2: 5%-20% growth control rate) | 9 (Level 9: above 95% growth control rate) |  |
| Cc1cnn(-c2c(C(F)(F)F)ccc(C(=O)c3c(C)nn(C)c3OC(=O)c3cnn(C)c3)c2Cl)c1 [Compound 087] | 10 | 5 (Level 5: above 60% growth control rate) | 9 (Level 9: above 95% growth control rate) | 6 (Level 6: above 70% growth control rate) | 10 | 4 (Level 4: above 50% growth control rate) | 0 | 6 (Level 6: above 70% growth control rate) |  |
| Cc1cnn(-c2c(C(F)(F)F)ccc(C(=O)c3cnn(C)c3OC(=O)c3cnn(C)c3)c2Cl)c1 [Compound 083] | 10 | 5 (Level 5: above 60% growth control rate) | 6 (Level 6: above 70% growth control rate) | 6 (Level 6: above 70% growth control rate) | 8 (Level 8: above 90% growth control rate) | 4 (Level 4: above 50% growth control rate) | 0 | 2 (Level 2: 5%-20% growth control rate) |  |
| Cc1nn(C)cc1C(=O)Oc1c(C(=O)c2ccc(C(F)(F)F)c(N3CCCCCC3=O)c2Cl)c(C2CC2)nn1C [Compound 062] | 10 |  | 8 (Level 8: above 90% growth control rate) | 7 (Level 7: above 80% growth control rate) | 3 (Level 3: above 20% growth control rate) | 1 (Level 1: below 5% growth control rate) | 3 (Level 3: above 20% growth control rate) | 5 (Level 5: above 60% growth control rate) | 10 |
| Cn1nc(C2CC2)c(C(=O)c2ccc(C(F)(F)F)c(N3CCCCCC3=O)c2Cl)c1O [Compound 059] | 10 |  | 5 (Level 5: above 60% growth control rate) | 6 (Level 6: above 70% growth control rate) | 9 (Level 9: above 95% growth control rate) | 1 (Level 1: below 5% growth control rate) | 2 (Level 2: 5%-20% growth control rate) | 3 (Level 3: above 20% growth control rate) | 10 |
| COCCCN(C(C)=O)c1c(C(F)(F)F)ccc(C(=O)c2c(C)nn(C)c2O)c1Cl [Compound 008] | 3 (Level 3: above 20% growth control rate) | 10 | 3 (Level 3: above 20% growth control rate) | 10 | 10 |  | 0 | 0 | 0 |
| Cc1cnn(-c2c(C(F)(F)F)ccc(C(=O)c3c(C)nn(C)c3O)c2Cl)c1 [Compound 084] | 10 | 10 | 8 (Level 8: above 90% growth control rate) | 10 | 10 |  | 0 | 7 (Level 7: above 80% growth control rate) | 9 (Level 9: above 95% growth control rate) |
| CC(=O)N(C)c1c(C(F)(F)F)ccc(C(=O)c2c(C)nn(C)c2O)c1Cl [Compound 004] | 9 (Level 9: above 95% growth control rate) | 9 (Level 9: above 95% growth control rate) | 4 (Level 4: above 50% growth control rate) | 4 (Level 4: above 50% growth control rate) | 1 (Level 1: below 5% growth control rate) |  | 0 | 5 (Level 5: above 60% growth control rate) | 9 (Level 9: above 95% growth control rate) |
| Cc1nn(C)cc1C(=O)Oc1c(C(=O)c2ccc(C(F)(F)F)c(-n3cccn3)c2Cl)c(C2CC2)nn1C [Compound 075] | 10 |  | 4 (Level 4: above 50% growth control rate) | 6 (Level 6: above 70% growth control rate) | 10 | 3 (Level 3: above 20% growth control rate) | 2 (Level 2: 5%-20% growth control rate) | 7 (Level 7: above 80% growth control rate) | 10 |
| CC(=O)Nc1c(C(F)(F)F)ccc(C(=O)c2c(C)nn(C)c2O)c1Cl [Compound 002] | 10 | 8 (Level 8: above 90% growth control rate) | 4 (Level 4: above 50% growth control rate) | 8 (Level 8: above 90% growth control rate) | 7 (Level 7: above 80% growth control rate) |  | 5 (Level 5: above 60% growth control rate) | 7 (Level 7: above 80% growth control rate) | 9 (Level 9: above 95% growth control rate) |
| COCCOCCCN(C(C)=O)c1c(C(F)(F)F)ccc(C(=O)c2c(C)nn(C)c2O)c1Cl [Compound 012] | 10 | 10 | 1 (Level 1: below 5% growth control rate) | 9 (Level 9: above 95% growth control rate) | 2 (Level 2: 5%-20% growth control rate) |  | 0 | 0 | 0 |
| CCCCN(C(C)=O)c1c(C(F)(F)F)ccc(C(=O)c2c(C)nn(C)c2O)c1Cl [Compound 006] | 0 | 5 (Level 5: above 60% growth control rate) | 2 (Level 2: 5%-20% growth control rate) | 10 | 3 (Level 3: above 20% growth control rate) |  | 0 | 1 (Level 1: below 5% growth control rate) | 5 (Level 5: above 60% growth control rate) |
